Test results taken from patent publication US20110039763A1, “TARGETED ANTIMICROBIAL MOIETIES” (C3 JIAN, INC., priority 2009, published 2011).
“Also recorded” adds a separate entry of the source.

System: microorganisms
Assay: Targeting peptide binding to target microorganisms (Tables 3, 10, 12)
Settings: peptide binding in aqueous buffers that varied with peptide solubility; preferably 1x PBS
Source text: In certain embodiments, the targeting moiety comprises one or more targeting peptides that bind particular bacteria, fungi, and/or yeasts, and/or algae, and/or viruses and/or that bind particular groups of bacteria, and/or groups of fungi, and/or groups of yeasts, and/or groups of algae.
In certain embodiments the targeting peptides include peptides comprising or consisting of one or more of the amino acid sequences shown in Table 3 (SEQ ID NOs:13-1566). In various embodiments the peptides include peptides comprising or consisting of the retro, inverso, retro-inverso, and/or beta form of one or more of the amino acid sequences shown in Table 3. Also contemplated are circular permutations of these sequences as well as peptides comprising or consisting of the retro, inverso, retro-inverso, and/or beta form of such circular permutations.
In certain embodiments the targeting peptide can comprise one or more domains capable of binding, specifically binding, or preferentially binding to a microorganism, e.g., a target microbial organism (see, e.g., Table 3). In certain embodiment, the targeting peptide be identified via screening peptide libraries. For example, a phage display peptide library can be screened against a target microbial organism or a desired antigen or epitope thereof. Any peptide identified through such screening can be used as a targeting peptide for the target microbial organism.

Substance	Target(s) (microorganism bound by the targeting peptide)
1T-26 (LTILPTTFFAIIVPILAVAFIAYSGFKIKGIVEHKDQW; Peptide with targeting and/or antimicrobial activity)	S. mutans; also recorded: S. aureus; also recorded: S. epidermidis; also recorded: C. jeikeium; also recorded: C. xerosis; also recorded: C. striatum; also recorded: P. aeruginosa
1T-27 (ALFVSLEQFLVVVAKSVFALCHSGTLS; Peptide with targeting and/or antimicrobial activity)	S. mutans; also recorded: S. aureus; also recorded: S. epidermidis; also recorded: C. jeikeium; also recorded: C. xerosis; also recorded: C. striatum; also recorded: P. aeruginosa
1T-28 (VSRDEAMEFIDREWTTLQPAGKSHA; Peptide with targeting and/or antimicrobial activity)	P. aeruginosa
1T-29 (GSVIKKRRKRMSKKKHRKMLRRTRVQRRKLGK; Peptide with targeting and/or antimicrobial activity)	S. epidermidis; also recorded: C. jeikeium; also recorded: C. xerosis; also recorded: C. striatum; also recorded: P. aeruginosa; also recorded: S. mutans; also recorded: S. aureus
1T-30 (GKAKPYQVRQVLRAVDKLETRRKKGGR; Peptide with targeting and/or antimicrobial activity)	S. aureus; also recorded: S. epidermidis; also recorded: C. xerosis; also recorded: C. striatum; also recorded: P. aeruginosa
1T-31 (NATGTDIGEVTLTLGRFS; Peptide with targeting and/or antimicrobial activity)	S. mutans; also recorded: P. aeruginosa
1T-32 (VSFLAGWLCLGLAAWRLGNA; Peptide with targeting and/or antimicrobial activity)	S. mutans
1T-33 (VRTLTILVIFIFNYLKSISYKLKQPFENNLAQSMISI; Peptide with targeting and/or antimicrobial activity)	S. aureus; also recorded: S. epidermidis; also recorded: C. jeikeium; also recorded: C. xerosis; also recorded: C. striatum; also recorded: P. aeruginosa
1T-34 (AFWLNILLTLLGYIPGIVHAVYIIAKR; Peptide with targeting and/or antimicrobial activity)	S. aureus; also recorded: S. epidermidis; also recorded: C. jeikeium; also recorded: C. xerosis; also recorded: C. striatum; also recorded: P. aeruginosa
1T-35 (EICLTLVFPIRGSYSEAAKFPVPIHIVEDGTVELPK; Peptide with targeting and/or antimicrobial activity)	P. aeruginosa
1T-36 (VYRHLRFIDGKLVEIRLERK; Peptide with targeting and/or antimicrobial activity)	S. aureus; also recorded: S. epidermidis; also recorded: C. jeikeium; also recorded: C. xerosis; also recorded: C. striatum; also recorded: P. aeruginosa
1T-37 (YIVGALVILAVAGLIYSMLRKA; Peptide with targeting and/or antimicrobial activity)	S. mutans; also recorded: S. aereus; also recorded: S. epidermidis; also recorded: C. jeikeium; also recorded: C. xerosis; also recorded: C. striatum; also recorded: P. aeruginosa
1T-38 (VMFVLTRGRSPRPMIPAY; Peptide with targeting and/or antimicrobial activity)	S. mutans; also recorded: S. aereus; also recorded: S. epidermidis; also recorded: C. jeikeium; also recorded: C. xerosis; also recorded: C. striatum; also recorded: P. aeruginosa
1T-39 (FGFCVWMYQLLAGPPGPPA; Peptide with targeting and/or antimicrobial activity)	S. mutans; also recorded: P. aeruginosa
